Like-named read-outs stand apart in the source and are kept apart here.
Legend:
[1] = system: Biofilms of Pseudomonas aeruginosa (12 isolates from Cystic Fibrosis patients); experiment: Biofilm susceptibility to antibiotics and antibiotic combinations (peg lid device), 24 h exposure; format: cell-based; settings: count apparently resistant isolates of 12
[2] = system: Pseudomonas aeruginosa (12 isolates from Cystic Fibrosis patients), planktonic bacteria; experiment: Planktonic susceptibility to antibiotics and antibiotic combinations (challenge plate), 24 h exposure; format: cell-based
[3] = system: P. aeruginosa ATCC 27853 biofilms; experiment: Peg lid biofilm susceptibility testing, qualitative (MBEC) and quantitative (MBIC, MBCB) end points; format: cell-based, Pseudomonas aeruginosa
Procedure: Qualitative end points. According to CLSI standards % the MIC is defined as the lowest concentration of an antimicrobial agent that prevents visible growth in the challenge medium after a set period of incubation. By contrast, the MBEC is defined as the lowest concentration of antimicrobial agent that prevents visible growth from occurring in the recovery medium used to collect biofilm cells^17. The MBEC can be determined using the protocol presented here, and is measured after the recovery medium has been incubated for a suitable period of time, the length of which depends on the growth rate of the microorganism. Quantitative end points. […] This definition can be extended to both planktonic and biofilm cells and these end points will be denoted as the MBCP and MBCB, respectively. […] The technique presented here allows the MBCB or MLCB to be calculated. Another measure of biofilm susceptibility that has been proposed is the minimum biofilm inhibitory concentration (MBIC)^38,39. Here, the MBIC is defined as the lowest concentration of an antimicrobial at which there is no time-dependent increase in biofilm MVCC when an early exposure time is compared with a later exposure time. The MBIC thus corresponds to the intersecting point of two concentration-dependent killing curves, and therefore, it is possible to distinguish between biofilm resistance and tolerance on the basis of VCC (FIG. 8). (iii) Read the OD of the microtiter plate wells at 650 nm using the microtiter plate reader and visually inspect the wells for growth. […] (viii) Score the spot plates for growth by colony counting using the same approach described in Step 8. Determine the mean VCCs and SD for the broth culture using equations (2) and (3). Calculate biofilm mean log-killing and SD using equation (5). […] The biofilms were then exposed to gentamicin for either 2 or 20 hours; qualitative and quantitative determinations of biofilm cell survival were then performed. For ease of understanding, we focus on a single antibiotic.

[4] = 12 isolates from Cystic Fibrosis patients, 24 hours exposure, count apparently resistant isolates of 12

| Compound | Pseudomonas resistance to individual antibiotics and antibiotic combinations, Biofilm [1] | Pseudomonas resistance to individual antibiotics and antibiotic combinations, Planktonic [2, 4] | other results |
| --- | --- | --- | --- |
| NCC[C@H](O)C(=O)N[C@@H]1C[C@H](N)[C@@H](O[C@H]2O[C@H](CN)[C@@H](O)[C@H](O)[C@H]2O)[C@H](O)[C@H]1O[C@H]1O[C@H](CO)[C@@H](O)[C@H](N)[C@H]1O [AK, Amikacin] | 11 | 8 |  |
| C[C@H]1[C@H](NC(=O)/C(=N\OC(C)(C)C(=O)O)c2csc(N)n2)C(=O)N1S(=O)(=O)O [AZTR, Aztreonam] |  |  | Pseudomonas resistance to individual antibiotics and antibiotic combinations, Planktonic [2]: 0 |
| CC(C)(O/N=C(\C(=O)N[C@@H]1C(=O)N2C(C(=O)[O-])=C(C[n+]3ccccc3)CS[C@H]12)c1csc(N)n1)C(=O)O [CFTZ, Ceftazidime] | 12 | 3 |  |
| O=C(O)c1cn(C2CC2)c2cc(N3CCNCC3)c(F)cc2c1=O [CIPRO, Ciprofloxacin] |  |  | Pseudomonas resistance to individual antibiotics and antibiotic combinations, Planktonic [2]: 4 |
| C[C@@H](O)[C@H]1C(=O)N2C(C(=O)O)=C(SCCN=CN)C[C@H]12 [IMP] | 12 | 12 |  |
| NC[C@H]1O[C@H](O[C@H]2[C@H](O)[C@@H](O[C@H]3O[C@H](CO)[C@@H](O)[C@H](N)[C@H]3O)[C@H](N)C[C@@H]2N)[C@H](N)C[C@@H]1O [TB, Tobramycin] | 12 | 3 |  |
| gentamicin | 12 | 8 | MBCB ([3]; 2 h exposure): > 512 µg/mL; MBCB ([3]; 20 h exposure): 512 µg/mL; MBEC ([3]; exposed for 2 or 20 hours, biofilms grown in LB broth): > 512 µg/mL; MBIC ([3]; from VCC, 2 h compared with 20 h exposure): 128 µg/mL |

— patent US20120329675A1, “Testing of Biofilm for Anti-microbial Agent Susceptibility” (priority 2009, published 2012)
